Results taken from patent US9796727B2, “Field effect transistor” (Nippon Kayaku Kabushiki Kaisha, priority 2009, dated 2017).
Converted amounts (≈) assume the structure as drawn.

assay: Solubility measurement in toluene; assay type: physicochemical; conditions: 60° C.
Protocol: Example 1: Solubility Measurement
In Table 2, solubility (g/L) in toluene at 60° C. is listed.

solubility in toluene	Compound
≤ 10 µg/mL	c1ccc2cc3c(cc2c1)sc1c2cc4ccccc4cc2sc31 [ref. 1, dinaphtho[2,3-b:2′,3′-f]thieno[3,2-b]thiophene, reference compound]
40 µg/mL (≈ 59.1 µM)	CCCCCCCCCCCCc1ccc2cc3c(cc2c1)sc1c2cc4ccc(CCCCCCCCCCCC)cc4cc2sc31 [Compound No. 14, 6,6′-Didodecyldinaphtho[2,3-b:2′,3′-f]thieno[3,2-b]thiophen]
50 µg/mL (≈ 80.5 µM)	CCCCCCCCCCc1ccc2cc3c(cc2c1)sc1c2cc4ccc(CCCCCCCCCC)cc4cc2sc31 [Compound No. 12, 6,6′-Didecyldinaphtho[2,3-b:2′,3′-f]thieno[3,2-b]thiophen]
60 µg/mL (≈ 106 µM)	CCCCCCCCc1ccc2cc3c(cc2c1)sc1c2cc4ccc(CCCCCCCC)cc4cc2sc31 [Compound No. 10, 6,6′-dioctyldinaphtho[2,3-b:2′,3′-f]thieno[3,2-b]thiophen]
20 µg/mL (≈ 44.2 µM)	CCCCc1ccc2cc3c(cc2c1)sc1c2cc4ccc(CCCC)cc4cc2sc31 [ref. 2, 6,6′-Dibutyldinaphtho[2,3-b:2′,3′-f]thieno[3,2-b]thiophen, reference compound]
80 µg/mL (≈ 157 µM)	CCCCCCc1ccc2cc3c(cc2c1)sc1c2cc4ccc(CCCCCC)cc4cc2sc31 [compound 6, 6,6′-Dihexyldinaphtho[2,3-b:2′,3′-f]thieno[3,2-b]thiophen]
